{"source": "patent US20040110287A1", "about": "“Multi-step method for the differentiation of insulin positive, glucose responsive cells” (ES Cell International Pte Ltd., priority 2002, published 2004)"}
{"system": "islet-like structures", "experiment": "Glucose-stimulated insulin release and insulin content of islet-like structures", "assay_type": "cell-based", "conditions": "3 mM or 20 mM glucose, factor added to culture", "description": "After the complete differentiation protocol described in detail in Example 2, the islet-like structures were cultured in the presence of either 3 mM glucose or 20 mM glucose to assay for glucose-stimulated insulin release. Insulin release and total insulin content were measured using standard methods. Additionally, factors were added to the culture of islet-like structures."}
{"compound": "Sonic hedgehog", "responsiveness of islet-like structures to high glucose (insulin release)": "increased the responsiveness"}
{"compound": "Indian hedgehog", "responsiveness of islet-like structures to high glucose (insulin release)": "increased the responsiveness"}
{"compound": "NC(=O)c1cccnc1", "note": "[nicotinamide, reference compound]", "responsiveness of islet-like structures to high glucose (insulin release)": "increased the responsiveness"}
{"compound": "leptin", "responsiveness of islet-like structures to high glucose (insulin release)": "increased the responsiveness"}
{"compound": "exendin-4 [reference compound]", "responsiveness of islet-like structures to high glucose (insulin release)": "increased the responsiveness"}
{"compound": "Desert hedgehog", "responsiveness of islet-like structures to high glucose (insulin release)": "increased the responsiveness"}
{"compound": "CC(C)(COP(=O)(O)OP(=O)(O)OC[C@H]1O[C@@H](n2cnc3c(N)ncnc32)[C@H](O)[C@@H]1OP(=O)(O)O)[C@@H](O)C(=O)NCCC(=O)NCCSC(=O)CC(=O)O", "note": "[malonyl CoA, reference compound]", "responsiveness of islet-like structures to high glucose (insulin release)": "increased the responsiveness"}
